Key:
[1] = test system: Arabidopsis thaliana plants; assay: SOA1 gene expression analysis (60mer microarray, 6200 genes) of herbicide-treated tissue; conditions: SOA1 profiles
[2] = test system: Arabidopsis thaliana plants; assay: SOA1 phenotypic analysis of herbicide-treated plants (incl. MIC/Tmic); format: in vivo; conditions: herbicide-treated plants
[3] = test system: Saccharomyces cerevisiae wild type strain BY4743; assay: AF1 yeast gene expression analysis (microarray, KEGG pathway mapping); format: cell-based
Experimental: Saccharomyces cerevisiae wild type strain BY4743 was purchased from American Type Culture Center (ATCC, Manassas, Va.). The yeast strain was grown in YPD or SD media. H. […] The cultures started from fresh single colonies were grown in 1.0 ml YPD overnight at 30° C. […] The OD600 was adjusted to 1.0 with YPD media, then 2.0 ml of each was inoculated into three 250 ml flasks, each containing 50 ml of SD media. […] The cells were kept growing for another two hours, then collected by centrifugation at 4000 rpm for 5 minutes at 4° C. Pellets were washed once with ice-cold water, then were lyophilized overnight at 4° C. […] Tubes were vortexed for 30 seconds, then incubated for 10 minutes at room temperature (RT). […] Tubes were incubated for 10 minutes at RT. Samples were centrifuged for 20 minutes as before. Pellets were washed with 400 μl 70% ethanol and centrifuged for 10 minutes as before. The pellet was then dissolved in 100 μl nuclease-free water. RNA quality was determined using the Bioanalyzer 2100 and the RNA 6000 assay (Agilent Technologies, Palo Alto, Calif.) according to manufacturer's instructions. RNA concentrations were determined spectrophotometrically by measuring the absorption at 260 nm in an Ultrospec 2000 (Pharmacia Biotech, Piscataway, N.J.). […] Labeled cRNAs were evaluated using the RNA 6000 assay on the Agilent Bioanalyzer 2100. Labeled cRNA concentrations were determined spectrophotometrically by measuring the absorption at 260 nm in an Ultrospec 2000 (Pharmacia Biotech, Piscataway, N.J.). […] Each pair of samples to be hybridized were independently labeled and hybridized utilizing a fluor reversal for a total of two hybridizations per sample pair. The microarrays were scanned simultaneously in the Cy3 and Cy5 channels with Agilent's 48-slide, Dual Laser DNA Microarray Scanner (Agilent Technologies, Palo Alto, Calif.) at 10 μm resolution using default settings. Image Analysis Software (Version A.4.0.45, Agilent Technologies, Palo Alto, Calif.) was used for image analysis. Each feature was determined from an array's associated pattern file and a detection algorithm. Intensity values for each feature were determined after subtracting background derived from an average of negative control features. Features with unusual pixel intensity statistics (e.g., high non-uniformity, saturation in either channel, and the like) were excluded from downstream analyses. Data was loaded into the Rosetta RESOLVER database (Rosetta Inpharmatics Inc., Kirkland, Wash.) for storage and analysis. Data was evaluated after combining results from fluor reversal replicate hybridizations. The annotation of yeast ORFs was obtained from Proteome BIOKNOWLEDGE Library (Incyte Genomics, Palo Alto, Calif.). In AF1, two different technologies were utilized: gene expression analysis (for examination of mRNA expression) and metabolite analysis. […] As noted previously, existing metabolic databases may be helpful in practicing the methods and systems of the present invention, but many databases include limitations that make their use in data analysis and pathway mapping less than straightforward. […] This caveat to KEGG makes it difficult to pinpoint the correct pathway when attempting to link a gene to a specific pathway. The pathway score indicates how meaningful the mapping is, or how likely it is to be correctly indicative of the pathway involved in the perturbation under examination. The method provides a pathway score based on perturbation levels of genes and/or compounds and the information content of each gene and/or compound in the pathway, i.e., a pathway score indicates the extent to which other pathways are mapped to a gene/compound. For example, imagine that two genes are perturbed in a particular experiment.

[4] = test system: Saccharomyces cerevisiae wild type strain BY4743; assay: AF1 yeast metabolite analysis by GC-MS and LC-MS; format: cell-based; conditions: for # Compounds perturbed by treatment: 2×MIC, two hours
[5] = test system: Saccharomyces cerevisiae wild type strain BY4743; assay: AF1 combined gene expression and metabolite data (reactions, pathways, cluster analysis); format: cell-based
From the text: The data were then combined to determine the number of reactions showing an enzyme and at least one compound perturbed, and to determine the number of pathways having at least one enzyme and one perturbed compound perturbed. The results of the analysis are represented in Tables 16 and 17, and were difficult to interpret, illustrating that the ability to draw conclusions from compound mapping to pathways is limited when absent additional data. […] A coherent data set was created from data obtained from the four above-described drug compounds. The data were reduced by using principle components analysis and cluster analysis.

COC(=O)c1cc(Oc2ccc(Cl)cc2Cl)ccc1[N+](=O)[O-] [Bifenox]
gene expression profile correlation to acifluorfen (r) [1]: 0.151
characteristic symptoms (morphological phenotype) [2]: Necrotic leaf flecks

CCc1cccc(C)c1N(C(=O)CCl)C(C)COC (stereo not drawn) [Metolachlor]
gene expression profile correlation with bifenox (r) [1]: 0.499
gene expression profile correlation with diquat (r) [1]: 0.569

CC[C@@H]([C@H](C)O)n1ncn(-c2ccc(N3CCN(c4ccc(OC[C@@H]5CO[C@@](Cn6cncn6)(c6ccc(F)cc6F)C5)cc4)CC3)cc2)c1=O [Posaconazole]
# Transcripts perturbed by treatment ([3]; P < 0.05, 2×MIC, two hours): 690
Number of Pathways Affected by at Least One Gene, # Pathways ([3]; p < 0.05, KEGG mapping): 69
# Compounds perturbed by treatment ([4]; P < 0.05): 3
# Compounds perturbed by treatment ([4]; P < 0.1): 4
Fold Change: alanine ([4]; Platform GC): 1.035
Fold Change: asparagine ([4]; Platform GC): 0.145
Fold Change: aspartic acid ([4]; Platform GC): −0.071
Fold Change: campesterol ([4]; Platform GC): 0
Fold Change: desmosterol ([4]; Platform GC): 0
Fold Change: disaccaride1 ([4]; Platform GC): 0.04733
Fold Change: disaccaride2 ([4]; Platform GC): 0.313
Fold Change: disaccaride3 ([4]; Platform GC): 0.3407
Fold Change: ergosterol ([4]; Platform GC): 0.808
Fold Change: fucosterol ([4]; Platform GC): 6.722
Fold Change: glutamine ([4]; Platform GC): 0.6439
Fold Change: glycanopyrose ([4]; Platform GC): 1.594
Fold Change: glycerol ([4]; Platform GC): 0.1873
Fold Change: glycine ([4]; Platform GC): 0.08267
Fold Change: hexadecanoic acid ([4]; Platform GC): −0.01867
Fold Change: iso citric acid ([4]; Platform GC): 0.4
Fold Change: isoleucine ([4]; Platform GC): 0.1023
Fold Change: lanosterol ([4]; Platform GC): 7.464
Fold Change: leucine ([4]; Platform GC): 0.334
Fold Change: lysine ([4]; Platform GC): 0.1586
Fold Change: malic acid ([4]; Platform GC): 0.2942
Fold Change: 2-ketobutyric acid ([4]; Platform nLC): −0.9992
Fold Change: 2-ketoglutaric ([4]; Platform nLC): 11.33
Fold Change: 3-indolylacetonitri ([4]; Platform nLC): −0.9998
Fold Change: 4-methylcatechol ([4]; Platform nLC): 0
Fold Change: 4aminobutyrate/dimg ([4]; Platform nLC): −0.008939
Fold Change: 5hydroxyLtryptophan ([4]; Platform nLC): 0
Fold Change: 6-benzylaminopurine ([4]; Platform nLC): 0
Fold Change: DLaminoadipic acid ([4]; Platform nLC): −0.9935
Fold Change: abscisic acid ([4]; Platform nLC): 0
Fold Change: aconitic acid ([4]; Platform nLC): 1.874
Fold Change: adenine ([4]; Platform nLC): 0
Fold Change: adenosine ([4]; Platform nLC): 128.3
Fold Change: alanine ([4]; Platform nLC): 0.1091
Fold Change: allantoic acid ([4]; Platform nLC): 0.3321
Fold Change: allantoin ([4]; Platform nLC): 5.97
Fold Change: anthranilic acid ([4]; Platform nLC): 0
Fold Change: arginine ([4]; Platform nLC): 0.1707
Fold Change: argininosuccinate ([4]; Platform nLC): 318.3
Fold Change: asparagine ([4]; Platform nLC): 0.006865
Fold Change: aspartic ([4]; Platform nLC): 0.305
Fold Change: benzoic acid ([4]; Platform nLC): 0
Fold Change: biotin ([4]; Platform nLC): −0.9992
Fold Change: caffeic acid ([4]; Platform nLC): −0.49
Fold Change: catechol ([4]; Platform nLC): 0
Fold Change: cinnamic acid ([4]; Platform nLC): 0
Fold Change: citricanoic/itaconi ([4]; Platform nLC): 0
Fold Change: citrulline ([4]; Platform nLC): 1160
Fold Change: coumaric acid ([4]; Platform nLC): 0
Fold Change: cytidine ([4]; Platform nLC): −0.9986
Fold Change: cytosine ([4]; Platform nLC): 0
Fold Change: decanoic acid ([4]; Platform nLC): 0.1263
Fold Change: diaminopimelic acid ([4]; Platform nLC): 0
Fold Change: dihydrofolic acid ([4]; Platform nLC): 0
Fold Change: estrone ([4]; Platform nLC): 0
Fold Change: farnesol ([4]; Platform nLC): 0
Fold Change: folic acid ([4]; Platform nLC): 0
Fold Change: fumaric/3m2oxobutan ([4]; Platform nLC): −0.9997
Fold Change: gallic acid ([4]; Platform nLC): 0.4414
Fold Change: gibberellic ([4]; Platform nLC): 0
Fold Change: glucosamine6PO4 ([4]; Platform nLC): −0.9951
Fold Change: glutamic/acetylseri ([4]; Platform nLC): 0.3222
Fold Change: glutamine/lysine ([4]; Platform nLC): 0.09814
Fold Change: guanine ([4]; Platform nLC): 0
Fold Change: guanosine ([4]; Platform nLC): −0.993
Fold Change: histidine ([4]; Platform nLC): 0
Fold Change: homogentisic/uric ([4]; Platform nLC): 0
Fold Change: hydrocortisone ([4]; Platform nLC): 0
Fold Change: hypoxanthine ([4]; Platform nLC): 0.1751
Fold Change: indole3pyruvic acid ([4]; Platform nLC): 0
Fold Change: inostol/glucos/sorb ([4]; Platform nLC): −0.493
Fold Change: isocitric/citric/qu ([4]; Platform nLC): 1.711
Fold Change: jasmonic acid ([4]; Platform nLC): 0
Fold Change: kinetin ([4]; Platform nLC): 0
Fold Change: lactic acid ([4]; Platform nLC): 0.5987
Fold Change: lauric acid ([4]; Platform nLC): 0.9833
Fold Change: leucine/isoleucine/ ([4]; Platform nLC): 0.03158
Fold Change: luteolin ([4]; Platform nLC): 0
Fold Change: malic acid ([4]; Platform nLC): 0.3101
Fold Change: malonic acid ([4]; Platform nLC): 0
Fold Change: menthol* ([4]; Platform nLC): 0.08121
Fold Change: methionine ([4]; Platform nLC): 0
Fold Change: 4-aminobenzoic acid ([4]; Platform pLC): 0
Fold Change: 4-methylcatechol ([4]; Platform pLC): 0
Fold Change: 4ambutyrate/dimglyc ([4]; Platform pLC): 31.37
Fold Change: 5hydroxyLtryptophan ([4]; Platform pLC): 0
Fold Change: 6benzylaminopurine ([4]; Platform pLC): 0
Fold Change: DL-aminoadipic acid ([4]; Platform pLC): 1.685
Fold Change: abscisic acid ([4]; Platform pLC): 0
Fold Change: adenine ([4]; Platform pLC): −0.0145
Fold Change: adenosine ([4]; Platform pLC): 0
Fold Change: alanine/sarcosine ([4]; Platform pLC): 0.1013
Fold Change: allantoic acid ([4]; Platform pLC): 0
Fold Change: anthranilic acid ([4]; Platform pLC): 0
Fold Change: arginine ([4]; Platform pLC): 0.03383
Fold Change: argininosuccinate ([4]; Platform pLC): 0
Fold Change: asparagine ([4]; Platform pLC): 0.4302
Fold Change: aspartic acid ([4]; Platform pLC): 0.3626
Fold Change: biotin ([4]; Platform pLC): 0
Fold Change: caffeine ([4]; Platform pLC): 0
Fold Change: citric acid TME ([4]; Platform pLC): 0
Fold Change: citrulline ([4]; Platform pLC): 0.1011
Fold Change: cytidine ([4]; Platform pLC): 0
Fold Change: cytosine ([4]; Platform pLC): 1135
Fold Change: diaminopimelic acid ([4]; Platform pLC): 0
Fold Change: dihydrofolic acid ([4]; Platform pLC): 0
Fold Change: dipicolinic acid ([4]; Platform pLC): 0
Fold Change: folic acid ([4]; Platform pLC): 0
Fold Change: glucosamine ([4]; Platform pLC): 0
Fold Change: glucosamine6PO4 ([4]; Platform pLC): 0
Fold Change: glutamate ([4]; Platform pLC): 0.3769
Fold Change: glutamine/lysine ([4]; Platform pLC): 0.303
Fold Change: glutathione ([4]; Platform pLC): 0.0101
Fold Change: guanosine ([4]; Platform pLC): 0.04655
Fold Change: histidine ([4]; Platform pLC): 0
Fold Change: hydrocortisone ([4]; Platform pLC): 0
Fold Change: hypoxanthine ([4]; Platform pLC): 0.135
Fold Change: itaconic acid dimes ([4]; Platform pLC): 0
Fold Change: kinetin ([4]; Platform pLC): 0
Fold Change: leucine/isoleucine/ ([4]; Platform pLC): 0.04937
Fold Change: luteolin ([4]; Platform pLC): 0
Fold Change: mannitol ([4]; Platform pLC): 0.3919
Fold Change: methionine ([4]; Platform pLC): −0.3997
Number of Reactions Having an Enzyme and at Least One Compound Perturbed, # Reactions [5]: 0
